Measured values published in ChEMBL document CHEMBL6109099, “Design, synthesis and biological evaluation of novel hydroxamic acid-derived histone deacetylase inhibitors bearing a 2-oxoindoline scaffold as potential antitumor agents” (Bioorg Med Chem, 2025).
Counter-ions that a name gives are not always drawn. The source made the active and inactive calls. The rule behind the calls is not given here.

Legend:
Histone deacetylase = test: Inhibition of HDAC in human HeLa cells nuclear extract; assay type: subcellular, Nucleus
SW-620 [1] = test: Cytotoxicity against human SW620 cells assessed as reduction in cell viability by SRB assay; assay type: functional, cell-based
HCT-116 = test: Cytotoxicity against human HCT-116 cells assessed as reduction in cell viability by SRB assay; assay type: functional, cell-based
[2] = Cytotoxicity against human MRC5 cells assessed as reduction in cell viability by SRB assay
SW-620 [3] = test: Cell cycle arrest in human SW620 cells assessed as accumulation of cells at G0/G1-phase at 5 uM measured after 24 hrs by propidium iodide staining based flow cytometry (reference value: 52.39 to 55.88%); assay type: functional
SW-620 [4] = test: Cell cycle arrest in human SW620 cells assessed as accumulation of cells at S-phase at 5 uM measured after 24 hrs by propidium iodide staining based flow cytometry (reference value: 16.38 to 16.91%); assay type: functional
SW-620 [5] = test: Cell cycle arrest in human SW620 cells assessed as accumulation of cells at G2/M-phase at 5 uM measured after 24 hrs by propidium iodide staining based flow cytometry (reference value: 27.55 to 31.23%); assay type: functional
SW-620 [6] = test: Induction of apoptosis in human SW620 cells assessed as early apoptotic cells at 5 uM measured after 24 hrs by Annexin V-APC/propidium iodide staining based flow cytometry (reference value: 7.13 to 9.13%); assay type: functional
SW-620 [7] = test: Induction of apoptosis in human SW620 cells assessed as late apoptotic cells at 5 uM measured after 24 hrs by Annexin V-APC/propidium iodide staining based flow cytometry (reference value: 3.47 to 4.55%); assay type: functional
SW-620 [8] = test: Induction of apoptosis in human SW620 cells assessed as necrotic cells at 5 uM measured after 24 hrs by Annexin V-APC/propidium iodide staining based flow cytometry (reference value: 0.2 to 0.42%); assay type: functional
SW-620 [9] = test: Induction of morphological changes in human SW620 cells assessed as cell shrinkage at 5 uM measured after 24 hrs; assay type: functional, cell-based
SW-620 [10] = test: Induction of morphological changes in human SW620 cells assessed as altered membrane fluidity at 5 uM measured after 24 hrs; assay type: functional, cell-based
SW-620 [11] = test: Induction of morphological changes in human SW620 cells assessed as altered membrane permeability at 5 uM measured after 24 hrs; assay type: functional, cell-based
SW-620 [12] = test: Induction of morphological changes in human SW620 cells assessed as reduction in cell size at 5 uM measured after 24 hrs; assay type: functional, cell-based
SW-620 [13] = test: Induction of morphological changes in human SW620 cells assessed as increase in granularity at 5 uM measured after 24 hrs; assay type: functional, cell-based
SW-620 [14] = test: Induction of morphological changes in human SW620 cells assessed as water extrusion at 5 uM measured after 24 hrs; assay type: functional, cell-based
SW-620 [15] = test: Induction of morphological changes in human SW620 cells assessed as cytoplasmic condensation at 5 uM measured after 24 hrs; assay type: functional, cell-based
SW-620 [16] = test: Induction of morphological changes in human SW620 cells assessed as tighter organelle packing at 5 uM measured after 24 hrs; assay type: functional, cell-based
SW-620 [17] = test: Induction of morphological changes in human SW620 cells assessed as cell rounding at 5 uM measured after 24 hrs; assay type: functional, cell-based
SW-620 [18] = test: Induction of morphological changes in human SW620 cells assessed as cell clumping at 5 uM measured after 24 hrs; assay type: functional, cell-based
SW-620 [19] = test: Potency index, ratio of SAHA IC50 to test compound IC50 for cytotoxicity against human SW620 cells; assay type: functional

| IC50 (Histone deacetylase) [µM] | Compound | IC50 (SW-620 [1]) [µM] | IC50 (HCT-116) [µM] | IC50 [2] [µM] | other results |
| --- | --- | --- | --- | --- | --- |
| 2.735 | COc1ccc2c(c1)CC(=O)N2Cc1ccc(C(=O)NO)cc1 | 8.9 | 3.62 | 41.4 | – |
| 0.477 | O=C(NO)c1ccc(CN2C(=O)Cc3ccccc32)cc1 | 8.18 | 7.22 | > 100 | – |
| 0.491 | O=C(NO)c1ccc(CN2C(=O)Cc3cc(Cl)ccc32)cc1 | 6.26 | 3.5 | > 100 | – |
| 1.043 | COc1ccc2c(c1)CC(=O)N2Cc1ccc(/C=C/C(=O)NO)cc1 | 10.2 | 3.18 | > 100 | – |
| 2.316 | O=C(/C=C/c1ccc(CN2C(=O)Cc3ccccc32)cc1)NO | 7.36 | 5.72 | > 100 | – |
| 0.015 | O=C(CCCCCCN1C(=O)Cc2ccccc21)NO | 1.81 | 1.68 | 17.6 | Ratio IC50 (SW-620 [19]): ~2.5; Activity (SW-620 [3]): 32.88%; Activity (SW-620 [4]): 15.26%; Activity (SW-620 [5]): 47.54%; Activity (SW-620 [6]): 23.4%; Activity (SW-620 [7]): 28.9%; Activity (SW-620 [8]): 1.85%; Activity (SW-620 [9]): Active; Activity (SW-620 [10]): Active; Activity (SW-620 [11]): Active; Activity (SW-620 [12]): Active; Activity (SW-620 [13]): Active; Activity (SW-620 [14]): Active; Activity (SW-620 [15]): Active; Activity (SW-620 [16]): Active; Activity (SW-620 [17]): Active; Activity (SW-620 [18]): Active |

Continued, compound first:

| Compound | IC50 (Histone deacetylase) [µM] | IC50 (SW-620 [1]) [µM] | IC50 (HCT-116) [µM] | IC50 [2] [µM] | other results |
| --- | --- | --- | --- | --- | --- |
| O=C(/C=C/c1ccc(CN2C(=O)Cc3cc(Br)ccc32)cc1)NO | 0.698 | 5.21 | 3.19 | 48.7 | – |
| O=C(CCCCCCN1C(=O)Cc2cc(Cl)ccc21)NO | 0.007 | 4.72 | 5.67 | 23.1 | – |
| O=C(NO)c1ccc(CN2C(=O)Cc3cc(F)ccc32)cc1 | 0.477 | 10.6 | 7.6 | > 100 | – |
| O=C(NO)c1ccc(CN2C(=O)Cc3cc(Br)ccc32)cc1 | 2.739 | 5.51 | 2.78 | 21.4 | – |
| O=C(/C=C/c1ccc(CN2C(=O)Cc3cc(F)ccc32)cc1)NO | 5.012 | 14.2 | 7.46 | > 100 | – |
| O=C(CCCCCCN1C(=O)Cc2cc(F)ccc21)NO | 0.047 | 5.71 | 3.95 | 57.3 | – |
| O=C(CCCCCCC(=O)Nc1ccccc1)NO [VORINOSTAT] | – | – | – | – | Activity (SW-620 [3]): 41.58%; Activity (SW-620 [4]): 15.16%; Activity (SW-620 [5]): 37.58%; Activity (SW-620 [6]): 26.3%; Activity (SW-620 [7]): 24.3%; Activity (SW-620 [8]): 1.53%; Activity (SW-620 [9]): Active; Activity (SW-620 [10]): Active; Activity (SW-620 [11]): Active; Activity (SW-620 [12]): Active; Activity (SW-620 [13]): Active; Activity (SW-620 [14]): Active; Activity (SW-620 [15]): Active; Activity (SW-620 [16]): Active; Activity (SW-620 [17]): Active; Activity (SW-620 [18]): Active |
| COc1cccc2c1C(=O)c1c(O)c3c(c(O)c1C2=O)C[C@@](O)(C(=O)CO)C[C@@H]3O[C@H]1C[C@H](N)[C@H](O)[C@H](C)O1 [DOXORUBICIN HYDROCHLORIDE] | – | 0.59 | 0.19 | 3.93 | – |
| O=C(/C=C/c1ccc(CN2C(=O)Cc3cc(Cl)ccc32)cc1)NO | 0.737 | 7.08 | 3.63 | 66.4 | – |
| O=C(CCCCCCN1C(=O)Cc2cc(Br)ccc21)NO | < 0.001 | 12.3 | 9.96 | 30.1 | – |
| COc1ccc2c(c1)CC(=O)N2CCCCCCC(=O)NO | 0.025 | 6.02 | 6.44 | 24.6 | – |
